Results on two substances are retold here after US20220218614A1, “IONIZABLE CATIONIC LIPIDS AND LIPID NANOPARTICLES, AND METHODS OF SYNTHESIS AND USE THEREOF” (Tidal Therapeutics, Inc., priority 2020, published 2022).

Entries after “also recorded” stand apart in the source; their conditions may differ.

The subject of one test is human CD3 T cells. Nature of the test: Transfection of human CD3 T cells (CD8 and CD4 subsets) with Fab/Nb-targeted LNPs. The format is cell-based. The following applies: targeted Lipid 8 LNP (Lipid 5 in Example 43), GFP mRNA approximately 2.5 μg/mL, approximately 24 hr. As for the experimental part:
LNPs were prepared using the mixing process described in Example 6, the buffer exchange process described below in Example 21. Using methods similar to Example 12, hSP34 and TRX2 Fab-lipid conjugates and a non-T cell specific anti-HER2 lipid-conjugate (Nellis D F, Ekstrom D L, Kirpotin D B, Zhu J, Andersson R, Broadt T L, Ouellette T F, Perkins S C, Roach J M, Drummond D C, Hong K, Marks J D, Park J W and Giardina S L (2005) Preclinical manufacture of an anti-HER2 scFv-PEG-DSPE, liposome-inserting conjugate. 1. Gram-scale production and purification. Biotechnol Prog 21:205-220) were post-inserted at various densities (SP34 0.25-17 g/mol; TRX2 0.25-9 g/mol; SP34+TRX2 0.25-9 g/mol each conjugate; anti-HER2 17 g/mol) into LNPs containing Lipid 8 and anti-CD20 targeting CART mRNA. Transfections were performed with human CD3 T cells at approximately 2.5 μg/mL mRNA for approximately 24 hr. For FACS analysis T cells were stained with M1 antibody (Sigma, F3040) that bind a N-terminus FLAG-tag variant sequence on the TTR-023 CAR (sequence provided below) in addition to staining for CD69 (Biolegend, 310930) and CD4 (Biolegend, 344648) to differentiate CD8 from CD4 cells.
LNPs were prepared using the mixing process described in Example 6, the buffer exchange process described in Example 21. Using methods similar to Example 12, hSP34, TRX2, and Ibalizumab Fab-lipid conjugates and a non-T cell specific anti-HER2 lipid-conjugate were post-inserted at various densities (specified in FIGS. 20A and 20B into LNPs containing Lipid 8 and Cy5/GFP mRNA. Transfections were performed with human CD3 T cells at approximately 2.5 μg/mL mRNA for approximately 24 hr and stained for CD69 (Biolegend, 310930) and CD4 (Biolegend, 344648) to differentiate CD8 from CD4 cells by FACS analysis.
LNPs were prepared using the mixing process described in Example 6, the buffer exchange process described in Example 21. […] Levels of transfection of CD3 T cells was measured by flow cytometry. […]

For another test, the system named is IFNγ. The test is described as follows: Human IFNγ ELISA of T cell culture supernatants after LNP transfection. The class given is cell-based. The note with it: T cells approximately 24 hr after targeted LNPs at approximately 2.5 μg/mL mRNA. As for the experimental part: LNPs were prepared using the mixing process described in Example 6, the buffer exchange process described in Example 21. hSP34 and TRX2 Fab-lipid conjugates generated from methods described in Example 4 and a non-T cell specific anti-HER2 lipid-conjugate (Nellis D F, Ekstrom D L, Kirpotin D B, Zhu J, Andersson R, Broadt T L, Ouellette T F, Perkins S C, Roach J M, Drummond D C, Hong K, Marks J D, Park J W and Giardina S L (2005) Preclinical manufacture of an anti-HER2 scFv-PEG-DSPE, liposome-inserting conjugate. 1. Gram-scale production and purification. Biotechnol Prog 21:205-220) were post-inserted at various densities (SP34 0.6-17 g/mol; TRX2 3-9 g/mol; anti-HER2 17 g/mol) into LNPs containing Lipid 8, Cy5 labeled GFP mRNA and GFP mRNA (1:9 Cy5:GFP mass ratio) by adding conjugate and LNPs together and heating the solution without mixing in a thermal cycler at 60 C for 60 min and cooled to 4° C. for 3-5 min. […] After transfection, LNP binding efficiency (Cy5) and transfection efficiency (GFP) was evaluated by flow cytometry. Supernatants were measured for human IFNγ concentration using a commercially available ELISA kit under manufacturers recommended conditions (R&D Systems Duoset).
IFN-γ was assayed using an R&D Duoset […] ELISA kit, PN DY285B. […] Optical density at 450 nm was read on a Spectramax M5 plate reader. […]
In general terms: An ELISA detects its analyte on a solid surface through an enzyme-linked reagent.

In the case of “SP34 NoDS Fab: anti-CD3 Fab without interchain disulfide, SEQ ID NO: 38 and 39”, the “% GFP transfection and GFP expression (MFI) of CD8 and CD4 T cells, in words” value in the test on human CD3 T cells was “higher % transfection (FIG. 65E) and higher GFP expression levels (FIG. 65F) than the SP34 DS Fab; also recorded: higher % transfection (FIG. 67A) and higher GFP expression levels”.

Turning to “TRX4: anti-CD3 TRX4 bDS Fab, SEQ ID NO: 50 and 51”, the “% GFP transfection and GFP expression (MFI) of CD8 and CD4 T cells, in words” value with human CD3 T cells is listed as “lower levels of GFP expression”. Moreover, the “IFNγ secretion into supernatant, in words” value in the test on IFNγ is listed as “higher levels of IFNγ secretion than SP34”.
